Assay results from patent US7829524B2, “Antimicrobial peptides” (Novozymes Adenium Biotech A/S, priority 2003, dated 2010).
Where no end group is shown, it is not given here.

Tests used:
[1] = tested on: Bortadella bronchiseptica (ATCC4617); assay: Radial diffusion assay (MEC); format: cell-based; details: susceptible species
Protocol: (§1) A modified version of a previously published protocol has been applied in the detection of antimicrobial activity (Lehrer et al., (1991) Ultra sensitive assays for endogenous antimicrobial polypeptides J Immunol Methods 137: 167-173). Target bacteria (10^6 colony forming units (CFU)) were added to 10 ml of underlay agarose (1% low electro-endosmosis agarose, 0.03% Trypticase soy broth, 10 mM sodium phosphate, pH 7.4, 37 degrees Celsius). Suspension was solidified on an INTEGRID Petri Dish (Becton Dickinson Labware). A 3 mm Gel Puncher was used to make holes in the underlay agarose (Amersham Pharmacia Biotech, Sweden). Samples were added to the holes and incubated at 37 degrees Celsius, 3 hours. An overlay was poured on top and the plate was incubated overnight (LB media, 7.5% Agar). Antimicrobial activity was seen as bacterial clearing zones around the wells. Living cells was counterstained by adding 10 ml, 0.2 mM MTT (3-(4,5-Dimethylthiazol-2-yl)-2,5-diphenyltetrazolium bromide Thiazolyl blue).

[2] = tested on: Enterococcus hirae (ATCC10541); assay: Radial diffusion assay (MEC); format: cell-based; details: susceptible species
Protocol: as §1

[3] = tested on: Pseudomonas aeroginosa (ATCC27853); assay: Radial diffusion assay (MEC); format: cell-based; details: susceptible species
Protocol: as §1

[4] = tested on: Salmonella choleraesuis (DSM9220); assay: Radial diffusion assay (MEC); format: cell-based; details: susceptible species
Protocol: as §1

[5] = tested on: Micrococcus luteus (ATCC9341); assay: Radial diffusion assay (MEC); format: cell-based; details: susceptible species
Protocol: as §1

[6] = tested on: Eschericia coli (ATCC10536); assay: Radial diffusion assay (MEC); format: cell-based; details: susceptible species
Protocol: as §1

[7] = tested on: Staphylococcus aureus (ATCC29737); assay: Radial diffusion assay (MEC); format: cell-based; details: susceptible species
Protocol: as §1

[8] = tested on: Proteus mirabilis (ATCC7002); assay: Radial diffusion assay (MEC); format: cell-based; details: susceptible species
Protocol: as §1

[9] = tested on: Klepsiella pneumoniae (ATCC10031); assay: Radial diffusion assay (MEC); format: cell-based; details: susceptible species
Protocol: as §1

[10] = tested on: Staphylococcus epidermidis (DSM1798); assay: Radial diffusion assay (MEC); format: cell-based; details: susceptible species
Protocol: as §1

[11] = tested on: Pseudomonas aeroginosa (ATCC 27853); assay: Killing kinetics in MHB; format: cell-based, Pseudomonas aeruginosa; details: Cat1 at 4×MIC
Protocol: The rate of killing of Cat1 was determined in MHB using Pseudomonas aeroginosa (ATCC 27853) as the test organism. The bacteria were incubated with Cat1 (at 4×MIC concentration). At different time-points, several dilutions of the preparation were plated and an estimate of viable cells was determined (CFU/ml). The results in Table 3 indicate that Cat1 rapidly kills the bacteria, with a near 3-log reduction in CFU within 30 minutes.

[12] = tested on: Clostridium difficile ATCC 43594; assay: NCCLS microdilution broth assay (MIC), wound infection strains; format: cell-based; details: Table 1; cationic adjusted Muller-Hinton Broth; highest concentration tested 32 μg/ml
Protocol: According to the NCCLS guidelines for susceptibility test of novel antimicrobial compounds, we found a broad spectrum of activity of Cat1 (Methods for Dilution Antimicrobial Susceptibility Tests for Bacteria That Grow Aerobically; Approved Standard-Fifth Edition. NCCLS document M7-A5 (ISBN1-56238-394-9)).
In another campaign, the specific MICs of Cat1 were determined against a variety of microbial strains relevant for wound infections. As recommended in the above-mentioned NCCLS protocol, the strains were grown in cationic adjusted Muller-Hinton Broth. The highest concentration tested was 32 μg/ml.

With “GLLRRLRKKIGKKLKKIGQKIKPIRILVP [SEQ ID NO: 3]” the “Minimal Effective Concentration (MEC)” value [1] was under 64 µg/mL, the “Minimal Effective Concentration (MEC)” value [2] was under 64 µg/mL and the “Minimal Effective Concentration (MEC)” value [3] was under 64 µg/mL. For the same sequence, the “Minimal Effective Concentration (MEC)” value [4] was under 64 µg/mL, the “Minimal Effective Concentration (MEC)” value [5] was under 64 µg/mL and the “Minimal Effective Concentration (MEC)” value [6] was under 64 µg/mL. For the same sequence, the “Minimal Effective Concentration (MEC)” value [7] was under 64 µg/mL, the “Minimal Effective Concentration (MEC)” value [8] was under 64 µg/mL and the “Minimal Effective Concentration (MEC)” value [9] was under 64 µg/mL. The “Minimal Effective Concentration (MEC)” value [10] was under 64 µg/mL, the “viable cells (CFU/ml)” value ([11]; 0.5 hours) was 175 CFU/ml and the “viable cells (CFU/ml)” value ([11]; 1.5 hours) was under 20 CFU/ml. For the same sequence, the “viable cells (CFU/ml)” value ([11]; 24 hours) was under 20 CFU/ml, the “reduction in CFU” value ([11]; within 30 minutes) was about 3 log and the MIC [12] was 32 mg/L.
